One assay deals with T1, opioid δ receptor (Homo sapiens, UniProt P41143).
T1 construct: expressed in transfected cells; host or cells: CHO cells
The experiment in a line: Opioid receptor functional test (Lance Ultra cAMP Kit), δ receptor agonist activity. The assay is classed as cell-based. The note with it: for Emax: read-out: δ Receptor Emax. As for the experimental part:
(§1) Functional activities of the compounds of the present invention for the μ, […], and κ opioid receptors were investigated.
(§2) The test was performed according to a prescribed method by using Lance Ultra cAMP Kit (Perkin-Elmer). The agonist activities were evaluated as follows. The CHO cells expressing each opioid receptor (μ, δ, or κ) and a test compound were reacted in an assay buffer (1×HBSS, […], pH 7.4, […] IBMX (isobutylmethylxanthine), 7.5% BSA) for 30 minutes in the presence of 10 μM forskolin. Then, the cAMP detection reagent included in the kit was added, and after 1 hour, time-resolved fluorescence measurements were performed by using the EnVision plate reader (Perkin-Elmer). A dose-responce curve of the test compound was obtained from fluorescence values measured at 665 nm, and EC50 value and Emax value were calculated. The Emax value was calculated as a ratio of the maximum responce of the test compound with respect to the maximum responce of each control agent (SNC80 for δ, DAMGO for μ, U-69593 for κ) taken as 100%.
(§3) 1): Hydrochloride was used.

Another assay deals with T2, opioid μ receptor (Homo sapiens, UniProt P35372).
T2 construct: expressed in transfected cells; host or cells: CHO cells
As to the kind of experiment: Opioid receptor functional test (Lance Ultra cAMP Kit), μ receptor agonist activity. The format is cell-based. The note with it: hydrochloride was used; for Emax at 10 µM: maximum concentration (10 μM), reaction did not reach the maximum, EC50 N.C., relative to DAMGO, read-out: μ Receptor responce rate at the maximum concentration (reference value); for EC50: CHO cells expressing μ opioid receptor, 10 μM forskolin, cAMP; for Emax: maximum response relative to DAMGO taken as 100%, read-out: μ Receptor Emax. The method, then: as §1, §2, §3

A further assay has as its target T3, opioid κ receptor (Homo sapiens, UniProt P41145).
T3 construct: expressed in transfected cells; host or cells: CHO cells
As to the kind of experiment: Opioid receptor functional test (Lance Ultra cAMP Kit), κ receptor agonist activity. The format is cell-based. The settings on record: hydrochloride was used; for EC50: CHO cells expressing κ opioid receptor, 10 μM forskolin, cAMP, read-out: κ Receptor EC50 value; for Emax: maximum response relative to U-69593 taken as 100%, read-out: κ Receptor Emax; for Emax at 10 µM: maximum concentration (10 μM), reaction did not reach the maximum, EC50 N.C., relative to U-69593, read-out: κ Receptor responce rate at the maximum concentration (reference value). The method, then:
as §1, §2, §3

For a further assay, the system named is ICR male mice. The experiment in a line: Analgesic activity (acetic acid writhing method). The assay is classed as in vivo. The settings on record: Mus musculus, sc; 3 mg/kg subcutaneous, 0.6% acetic acid i.p., writhing inhibition rate vs solvent group; hydrochloride was used; read-out: Inhibitory activities against writhing. The method, then: ICR male mice were used as groups each consisting of eight mice. Twenty minutes after the subcutaneous administration of a test compound (3 mg/kg), a 0.6% aqueous solution of acetic acid was intraperitoneally administered (0.1 mL/10 g body weight), and from the point 5 minutes after the administration, number of writhing observed over 20 minutes was counted. The analgesic activity was evaluated on the basis of the writhing inhibition rate (% inhibition) of the test compound administration group with respect to the writhing number of the solvent administration group.
1): Hydrochloride was used. 2): The evaluation results of the inhibitory activities against writhing were classified on the basis of the inhibition rate as follows. ≧90%, +++; 70≦%<90, ++; 50≦%<70, +

[1] abbreviates: CHO cells expressing δ opioid receptor, 10 μM forskolin, cAMP, hydrochloride was used, read-out: δ Receptor EC50 value.
The mark [2] stands for this setting: maximum response relative to SNC80 taken as 100%, hydrochloride was used.

Read-outs that look alike come from different tables or passages of the source.

T2 sequence (P35372 whole entry): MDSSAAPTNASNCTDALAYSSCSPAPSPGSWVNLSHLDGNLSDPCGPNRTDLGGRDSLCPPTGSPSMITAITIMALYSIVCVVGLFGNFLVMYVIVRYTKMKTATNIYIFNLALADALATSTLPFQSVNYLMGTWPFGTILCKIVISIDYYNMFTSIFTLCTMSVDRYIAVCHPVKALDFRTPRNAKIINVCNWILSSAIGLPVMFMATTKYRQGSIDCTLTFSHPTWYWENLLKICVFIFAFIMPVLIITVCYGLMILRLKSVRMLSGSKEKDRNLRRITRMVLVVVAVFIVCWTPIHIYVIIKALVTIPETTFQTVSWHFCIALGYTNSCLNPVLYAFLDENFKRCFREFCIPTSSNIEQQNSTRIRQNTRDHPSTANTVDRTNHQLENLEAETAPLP
T1 sequence (P41143 whole entry): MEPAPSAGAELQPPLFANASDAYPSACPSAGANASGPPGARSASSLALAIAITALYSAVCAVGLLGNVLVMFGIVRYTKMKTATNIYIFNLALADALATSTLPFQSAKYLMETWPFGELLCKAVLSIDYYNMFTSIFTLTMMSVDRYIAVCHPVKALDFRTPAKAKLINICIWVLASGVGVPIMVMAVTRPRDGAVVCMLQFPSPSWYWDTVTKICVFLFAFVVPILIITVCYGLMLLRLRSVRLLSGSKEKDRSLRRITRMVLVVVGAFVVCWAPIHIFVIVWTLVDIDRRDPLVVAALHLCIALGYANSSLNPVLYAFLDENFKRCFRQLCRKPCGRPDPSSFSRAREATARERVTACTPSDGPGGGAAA
T3 sequence (P41145 whole entry): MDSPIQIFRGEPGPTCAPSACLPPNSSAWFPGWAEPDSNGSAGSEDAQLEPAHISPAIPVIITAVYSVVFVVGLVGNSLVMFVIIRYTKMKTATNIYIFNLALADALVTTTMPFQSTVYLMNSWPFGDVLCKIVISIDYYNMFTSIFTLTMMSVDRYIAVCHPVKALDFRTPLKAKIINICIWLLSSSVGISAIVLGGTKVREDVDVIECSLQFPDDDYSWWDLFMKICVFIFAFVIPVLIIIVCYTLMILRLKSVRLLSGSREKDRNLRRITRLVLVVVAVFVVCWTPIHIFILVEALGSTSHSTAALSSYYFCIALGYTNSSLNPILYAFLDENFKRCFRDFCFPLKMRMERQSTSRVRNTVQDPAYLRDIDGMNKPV

For the compound `CC(C)NC(=O)N1C[C@H]2CC34CCC1C2C31CCN(CC2CC2)C4Cc2ccc(O)cc21` (stereo partly drawn) [Compound 159], the EC50 at opioid δ receptor (setting [1]) and on opioid κ receptor was less than 1 nM throughout. In addition, the Emax on opioid δ receptor (setting [2]) was 76%; on opioid κ receptor, 37%. Also, the Emax at 10 µM at opioid μ receptor came out at 2.8%. In addition, in the assay with ICR male mice, the inhibition in vivo at 3 mg/kg was 70 to 90%.

With `Oc1ccc2c(c1)C13CCN(CC4CC4)C(C2)C12CCC1C3[C@@H](CN1c1cnccn1)C2` (stereo partly drawn) [Compound 257], the inhibition in vivo at 3 mg/kg in the assay with ICR male mice was 70 to 90%.

On to `Oc1ccc2c(c1)C13CCN(CC4CC4)C(C2)C12CCC1C3[C@@H](CN1c1ccc3ccccc3n1)C2` (stereo partly drawn) [Compound 243], for which the inhibition in vivo at 3 mg/kg in the assay with ICR male mice was in the range of 70 to 90%.

Regarding `Cc1cc(C)nc(N2C[C@H]3C[C@@]45CCC2C3[C@@]42CCN(CC3CC3)[C@@H]5Cc3ccc(O)cc32)n1` (stereo partly drawn) [Compound 223, (1S,5aS,6R,11bR)-14-(cyclopropylmethyl)-3-(4,6-dimethylpyrimidin-2-yl)-2,3,3a,4,5,6,7,11c-octahydro-1H-6,11b-(iminoethano)-1,5a-methanonaphtho[1,2-e]indol-10-ol], the inhibition in vivo at 3 mg/kg in the assay on ICR male mice is no less than 90%.

For the compound `O=C(c1cccc(Cl)c1)N1C[C@H]2C[C@@]34CC[C@@H]1[C@@H]2[C@@]31CCN(CC2CC2)[C@@H]4Cc2ccc(O)cc21` [Compound 79, (3-chlorophenyl)[(1S,3aR,5aS,6R,11bR,11cS)-14-(cyclopropylmethyl)-10-hydroxy-1,2,3a,4,5,6,7,11c-octahydro-3H-6,11b-(iminoethano)-1,5a-methanonaphtho[1,2-e]indol-3-yl]methanone], on opioid δ receptor (setting [1]), the EC50 is less than 1 nM. At opioid δ receptor (setting [2]), the Emax amounted to 75%. In addition, the Emax at 10 µM was 8.8% at opioid μ receptor and 9.6% at opioid κ receptor. Moreover, the inhibition in vivo at 3 mg/kg in the assay on ICR male mice lay within 70 to 90%.

In the case of `Oc1ccc2c(c1)C13CCN(CC4CC4)C(C2)C12CCC1C3[C@@H](CN1c1cc(F)ccn1)C2` (stereo partly drawn) [Compound 239], in the assay with ICR male mice, the inhibition in vivo at 3 mg/kg is no less than 90%.

On to `O=C(c1ccccc1)N1C[C@H]2C[C@@]34CCC1C2[C@@]31CCN(CC2CC2)[C@@H]4Cc2ccccc21` (stereo partly drawn) [Compound 298, [(1S,5aS,6R,11bR)-14-(Cyclopropylmethyl)-4,5,6,7-tetrahydro-1H-6,11b-(iminoethano)-1,5a-methanonaphtho[1,2-e]indol-3(2H,3aH,11cH)-yl](phenyl)methanone], for which the values for the EC50 on opioid δ receptor (setting [1]), at opioid μ receptor and at opioid κ receptor were less than 10 nM, greater than 50 nM and greater than 100 nM, respectively. In addition, the Emax on opioid δ receptor (setting [2]) came to 102%; on opioid μ receptor it was 16%; at opioid κ receptor it was 32%. The inhibition in vivo at 3 mg/kg with ICR male mice was no less than 90%.

In the case of `CCCN1CC[C@@]23c4cc(O)ccc4C[C@@H]1[C@]21CC[C@@H]2[C@H]3[C@@H](CN2C(=O)c2ccccc2)C1` [Compound 83, [(1S,3aR,5aS,6R,11bR,11cS)-10-hydroxy-14-propyl-1,2,3a,4,5,6,7,11c-octahydro-3H-6,11b-(iminoethano)-1,5a-methanonaphtho[1,2-e]indol-3-yl](phenyl)methanone], the EC50 at opioid δ receptor (setting [1]) is less than 1 nM. In addition, the Emax on opioid δ receptor (setting [2]) is 99%. Further, the Emax at 10 µM at opioid μ receptor is 7.9%; at opioid κ receptor, 2.1%.

In the case of `Cc1cc(C)nc(N2C[C@H]3CC45CCC2C3C42CCN(CC(F)(F)c3ccccc3)C5Cc3ccc(O)cc32)n1` (stereo partly drawn) [Compound 283], the EC50 on opioid δ receptor (setting [1]) was less than 50 nM; on opioid μ receptor it was greater than 500 nM. Besides, the Emax on opioid δ receptor (setting [2]) was found to be 91%; on opioid μ receptor, 101%. The Emax at 10 µM at opioid κ receptor came to 11%.

With `O=S(=O)(c1ccccc1)N1C[C@H]2O[C@@]34CC[C@@H]1[C@@H]2[C@@]31CCN(CC2CC2)[C@@H]4Cc2ccc(O)cc21` [Compound 58, (1S,3aR,5aS,6R,11bR,11cS)-3-benzenesulfonyl-14-(cyclopropylmethyl)-2,3,3a,4,5,6,7,11c-octahydro-1H-6,11b-(iminoethano)-1,5a-epoxynaphtho[1,2-e]indol-10-ol], at opioid δ receptor, the EC50 is less than 10 nM and the Emax turned out to be 66%. Moreover, on opioid μ receptor, the EC50 is greater than 1 nM and the Emax is 54%. The Emax at 10 µM on opioid κ receptor amounted to 19%.

With `Cc1cc(C)nc(N2C[C@H]3CC45CCC2C3C42CCN(C[C@H](C)O)C5Cc3ccc(O)cc32)n1` (stereo partly drawn) [Compound 285], the values for the EC50 at opioid δ receptor (setting [1]), on opioid μ receptor and at opioid κ receptor were less than 10 nM, greater than 10 nM and greater than 100 nM, respectively. In addition, the values for the Emax on opioid δ receptor (setting [2]), at opioid μ receptor and at opioid κ receptor were 81%, 48% and 78%, respectively.

Turning to `CC(C)COC(=O)N1C[C@H]2CC34CCC1C2C31CCN(CC2CC2)C4Cc2ccc(O)cc21` (stereo partly drawn) [Compound 196], the EC50 on opioid δ receptor (setting [1]) was less than 10 nM; on opioid κ receptor, greater than 1 nM. Also, the values for the Emax on opioid δ receptor (setting [2]) and on opioid κ receptor were 67% and 12%, respectively. In addition, at opioid μ receptor, the Emax at 10 µM is 7.6%.

On to `O=C(N1CCCCC1)N1C[C@H]2CC34CCC1C2C31CCN(CC2CC2)C4Cc2ccc(O)cc21` (stereo partly drawn) [Compound 167], for which the EC50 at opioid δ receptor (setting [1]) is less than 1 nM; at opioid κ receptor, greater than 1 nM. In addition, the Emax on opioid δ receptor (setting [2]) was determined as 96%; at opioid κ receptor, 22%. On opioid μ receptor, the Emax at 10 µM is 4.6%.

Turning to `O=C(c1ccccc1)N1C[C@H]2C[C@@]34CC[C@@H]1[C@@H]2[C@@]31CCN(CCF)[C@@H]4Cc2ccc(O)cc21` [Compound 84, [(1S,3aR,5aS,6R,11bR,11cS)-14-(2-fluoroethyl)-10-hydroxy-1,2,3a,4,5,6,7,11c-octahydro-3H-6,11b-(iminoethano)-1,5a-methanonaphtho[1,2-e]indol-3-yl](phenyl)methanone], at opioid δ receptor (setting [1]), the EC50 is less than 10 nM. Further, the Emax on opioid δ receptor (setting [2]) was found to be 99%. For the same compound, the values for the Emax at 10 µM at opioid μ receptor and at opioid κ receptor were 20% and 5.9%, respectively.

With `Cc1cc(C)nc(N2C[C@H]3C[C@@]45CCC2C3[C@@]42CCN(CC3CC3)[C@@H]5Cc3cccc(O)c32)n1` (stereo partly drawn) [Compound 293, (1S,5aS,6R,11bS)-14-(cyclopropylmethyl)-3-(4,6-dimethylpyrimidin-2-yl)-2,3,3a,4,5,6,7,11c-octahydro-1H-6,11b-(iminoethano)-1,5a-methanonaphtho[1,2-e]indol-11-ol], the EC50 is less than 10 nM on opioid δ receptor (setting [1]), greater than 50 nM at opioid μ receptor and greater than 50 nM at opioid κ receptor. Besides, the Emax at opioid δ receptor (setting [2]) was 91%; on opioid μ receptor it was 17%; at opioid κ receptor it was 51%.

On to `O=C(c1ccccc1)N1C[C@H]2O[C@@]34CC[C@@H]1[C@@H]2[C@@]31CCN(CCO)[C@@H]4Cc2ccc(O)cc21` [Compound 27, [(1S,3aR,5aS,6R,11bR,11cS)-10-hydroxy-14-(2-hydroxyethyl)-1,2,3a,4,5,6,7,11c-octahydro-3H-6,11b-(iminoethano)-1,5a-epoxynaphtho[1,2-e]indol-3-yl](phenyl)methanone], for which the EC50 was less than 10 nM at opioid δ receptor (setting [1]) and greater than 50 nM at opioid μ receptor. The Emax was found to be 95% at opioid δ receptor (setting [2]) and 34% on opioid μ receptor. Also, the Emax at 10 µM on opioid κ receptor amounted to 33%.

Take `C[C@H]1[C@H]2C[C@@]34CC[C@H]([C@@H]2[C@]32CCN(CC3CC3)[C@@H]4Cc3ccc(O)cc32)N1C(=O)c1ccccc1` [Compound 334, [(1S,2S,3aR,5aS,6R,11bS,11cS)-14-(Cyclopropylmethyl)-10-hydroxy-2-methyl-1,2,3a,4,5,6,7,11c-octahydro-3H-6,11b-(iminoethano)-1,5a-methanonaphtho[1,2-e]indol-3-yl](phenyl)methanone]: the figures for the EC50 at opioid δ receptor (setting [1]) and at opioid κ receptor were less than 1 nM and greater than 1 nM, respectively. The Emax on opioid δ receptor (setting [2]) worked out at 87%; at opioid κ receptor, 39%. Also, the Emax at 10 µM at opioid μ receptor came to 2.9%.

For the compound `Cc1cc(C)nc(N2C[C@H]3CC45CCC2C3C42CCN(CC3CC3)C5Cc3ccccc32)n1` (stereo partly drawn) [Compound 300], the EC50 is less than 50 nM at opioid δ receptor (setting [1]), greater than 100 nM at opioid μ receptor and greater than 500 nM on opioid κ receptor. Also, the values for the Emax at opioid δ receptor (setting [2]), on opioid μ receptor and on opioid κ receptor were 105%, 26% and 39%, respectively.

The values above are taken from US8952030B2, “Morphinan derivative” (priority 2011, dated 2015).
